Laboratory results as given in patent US7745457B2, “Meridamycin analogues for the treatment of neurodegenerative disorders” (Wyeth LLC, priority 2006, dated 2010).

Test system: cortical neuron cultures
Assay: Neurite outgrowth in dissociated cortical neuron cultures
Assay type: cell-based
Details: Cortical neurone; embryonic day 15 rat cortical neurons, 72 hours treatment, TUJ-1 staining, Cellomics ArrayScan ENO algorithm; read-out: EC50 in cortical neuron assays (neurite outgrowth)
Protocol: Dissociated cortical neuron cultures were prepared as previously described (Pong et al., 2001). Briefly, embryonic day 15 rat fetuses were collected and dissected in ice-cold PBS. Dissected cortices were pooled together and transferred to an enzymatic dissociation medium containing papain. After 30 minutes, the tissue was mechanically triturated with a fire-polished glass Pasteur pipette. Single-cell suspensions in complete media were seeded on poly-L-ornithine and laminin coated 96-well plates. 24 hours later, cultures were treated with various concentrations of compound for 72 hours. The cultures were then fixed and stained with an anti-tubulin primary antibody (TUJ-1) and a fluorescent-tagged secondary antibody. Neurite outgrowth was determined by using the Enhanced Neurite Outgrowth (ENO) algorithm with the Cellomics ArrayScan and expressed as average neurite length or total neurite length per cell.

SMILES	EC50 [µM]
CC/C1=C\CC(/C(C)=C/C(C)C(C)OC(C)=O)OC(=O)C2CCCCN2C(=O)C(=O)C2(O)OC(CCC2C)CC(O)C(C)C(O)CC(OC(C)=O)CC(OC(C)=O)/C(C)=C/C(C)CC(C)C1OC(C)=O (stereo not drawn) [Example 3]	< 1
CC/C1=C\CC(/C(C)=C/C(C)C(C)O)OC(=O)C2CCCCN2C(=O)C(=O)C2(O)OC(CCC2C)CC(O)C(C)C(O)CC2CC(OC(C)(C)O2)/C(C)=C/C(C)CC(C)C1O (stereo not drawn) [Example 4]	< 1
CC/C1=C\CC(/C(C)=C/C(C)C(C)OC(C)=O)OC(=O)C2CCCCN2C(=O)C(=O)C2(O)OC(CCC2C)CC(O)C(C)C(OC(C)=O)CC(OC(C)=O)CC(OC(C)=O)/C(C)=C/C(C)CC(C)C1OC(C)=O (stereo not drawn) [Example 5]	< 1
CC/C1=C\CC(/C(C)=C/C(C)C(C)=O)OC(=O)C2CCCCN2C(=O)C(=O)C2(O)OC(CCC2C)CC2OC(C)(C)OC(CC3CC(OC(C)(C)O3)/C(C)=C/C(C)CC(C)C1=O)C2C (stereo not drawn) [Example 6]	< 1
CC/C1=C\CC(/C(C)=C/C(C)C(C)OC(C)=O)OC(=O)C2CCCCN2C(=O)C(=O)C2(O)OC(CCC2C)CC(OC(C)=O)C(C)C(OC(C)=O)CC(OC(C)=O)CC(OC(C)=O)/C(C)=C/C(C)CC(C)C1OC(C)=O (stereo not drawn) [Example 2]	< 1
CC/C1=C\CC(/C(C)=C/C(C)C(C)O)OC(=O)C2CCCCN2C(=O)C(=O)C2(O)OC(CCC2C)CC2OC(C)(C)OC(CC3CC(OC(C)(C)O3)/C(C)=C/C(C)CC(C)C1O)C2C (stereo not drawn) [Example 1]	< 1
